The values that follow come from patent EP4782448A1, “SUBSTITUTED PYRIDOTRIAZOLE COMPOUND, AND PREPARATION METHOD THEREFOR AND USE THEREOF” (Origiant Pharmaceutical Co., Ltd., priority 2023, dated 2025).

A value given as a limit tells only on which side of the number the result lay.

For this experiment, the system named is HT-29 cells. Description: In vitro assay for protection of HT-29 cells from necroptosis (TNFα/Smac mimetic/Z-VAD-FMK induction, CCK8 readout). It is filed as cell-based. The note with it: TNFα/Smac mimetic/Z-VAD-FMK for 24 h; inhibition of necroptosis; read-out: HT-29 (EC50).

What is called EC50 is the concentration at which the effect is half-maximal. As to `CC(C(=O)Nc1nc2cc(-c3ccc4c(c3)c(C(=O)N[C@@H](C)c3ccc(F)cc3)cn4C)ccn2n1)N1CC[C@H](O)C1` (stereo partly shown) [Compound 1], the EC50 was in the range of 10 to 100 nM.

As for `C[C@H](NC(=O)c1cn(C)c2ccc(-c3ccn4nc(NC(=O)CN5C[C@H](O)CC5=O)nc4c3)cc12)c1ccc(F)cc1` [Compound 4], the EC50 lay within 10 to 100 nM.

`C[C@H](NC(=O)c1cn(C)c2ccc(-c3ccn4nc(NC(=O)CN5CCC(O)(O)CC5)nc4c3)cc12)c1ccc(F)cc1` [Compound 5]: the EC50 was < 1 nM.

`C[C@H](NC(=O)c1cn(C)c2ccc(-c3ccn4nc(NC(=O)CN5CCC[C@H](O)C5)nc4c3)cc12)c1ccc(F)cc1` [Compound 7]: the EC50 was < 1 nM.

On to `CCOC(=O)C(=O)Nc1nc2cc(-c3ccc4c(c3)c(C(=O)N[C@@H](C)c3ccc(F)cc3)cn4C)ccn2n1` [Compound 10], for which the EC50 fell in the range of 1 to 10 nM.

Take `C[C@H](NC(=O)c1cn(C)c2ccc(-c3ccn4nc(NC(=O)C(N)=O)nc4c3)cc12)c1ccc(F)cc1` [Compound 11]: the EC50 fell in the range of 1 to 10 nM.

On to `C[C@H](NC(=O)c1cn(C)c2ccc(-c3ccn4nc(NC(=O)CN5CC[C@@H](O)C5)nc4c3)cc12)c1ccc(F)cc1` [Compound 12], for which the EC50 was < 1 nM.

Consider `C[C@H](NC(=O)c1cn(C)c2ccc(-c3ccn4nc(NC(=O)CC5CCCCC5)nc4c3)cc12)c1ccc(F)cc1` [Compound 13], for which the concentration for a half-maximal effect (EC50) was < 1 nM.

Turning to `C[C@H](NC(=O)c1cn(C)c2ccc(-c3ccn4nc(NC(=O)CN5CCOCC5=O)nc4c3)cc12)c1ccc(F)cc1` [Compound 16], the EC50 was 10 to 100 nM.

As for `CCOC(=O)Nc1nc2cc(-c3ccc4c(c3)c(C(=O)N[C@@H](C)c3ccc(F)cc3)cn4C)ccn2n1` [Compound 17], the half-maximal effective concentration (EC50) is < 1 nM.

For the compound `COC1CCN(CC(=O)Nc2nc3cc(-c4ccc5c(c4)c(C(=O)N[C@@H](C)c4ccc(F)cc4)cn5C)ccn3n2)C1` (stereo partly shown) [Compound 19], the EC50 is < 1 nM.

As to `C[C@H](NC(=O)c1cn(C)c2ccc(-c3ccn4nc(NC(=O)CN5CC[C@@H](F)C5)nc4c3)cc12)c1ccc(F)cc1` [Compound 20], the concentration giving a half-maximal response (EC50) was < 1 nM.

Take `C[C@H](NC(=O)c1cn(C)c2ccc(-c3ccn4nc(NC(=O)CN5CC[C@H](F)C5)nc4c3)cc12)c1ccc(F)cc1` [Compound 21]: the EC50 was < 1 nM.

Take `C[C@H](NC(=O)c1cn(C)c2ccc(-c3ccn4nc(NC(=O)CN5CCC(C#N)CC5)nc4c3)cc12)c1ccc(F)cc1` [Compound 23]: the EC50 was < 1 nM.

Regarding `COC1CCN(CC(=O)Nc2nc3cc(-c4ccc5c(c4)c(C(=O)N[C@@H](C)c4ccc(F)cc4)cn5C)ccn3n2)CC1` [Compound 24], the EC50 is < 1 nM.

In the case of `COCCOCCOCC(=O)Nc1nc2cc(-c3ccc4c(c3)c(C(=O)N[C@@H](C)c3ccc(F)cc3)cn4C)ccn2n1` [Compound 25], the EC50 was < 1 nM.

For `COCCOCCOCCOCC(=O)Nc1nc2cc(-c3ccc4c(c3)c(C(=O)N[C@@H](C)c3ccc(F)cc3)cn4C)ccn2n1` [Compound 26], the EC50 was < 1 nM.

In the case of `C[C@H](NC(=O)c1cn(C)c2ccc(-c3ccn4nc(NC(=O)CN5CCS(=O)(=O)CC5)nc4c3)cc12)c1ccc(F)cc1` [Compound 28], the EC50 was 1 to 10 nM.

`C[C@H](NC(=O)c1cn(C)c2ccc(-c3ccn4nc(NC(=O)CN5CCCOCC5)nc4c3)cc12)c1ccc(F)cc1` [Compound 30]: the EC50 was < 1 nM.

With `C[C@H](NC(=O)c1cn(C)c2ccc(-c3ccn4nc(NC(=O)C5(C(=O)O)CC5)nc4c3)cc12)c1ccc(F)cc1` [Compound 31], the EC50 was 10 to 100 nM.

Turning to `C[C@H](NC(=O)c1cn(C)c2ccc(-c3ccn4nc(NC(=O)CN5CCOCC5C(=O)O)nc4c3)cc12)c1ccc(F)cc1` (stereo partly shown) [Compound 33], the EC50 fell in the range of 1000 to 10000 nM.

On to `C[C@H](NC(=O)c1cn(C)c2ccc(-c3ccn4nc(NC(=O)CN5CC(C#N)C5)nc4c3)cc12)c1ccc(F)cc1` [Compound 34], for which the EC50 is < 1 nM.

With `C[C@H](NC(=O)c1cn(C)c2ccc(-c3ccn4nc(NC(=O)CN5CCOC[C@@H]5CO)nc4c3)cc12)c1ccc(F)cc1` [Compound 35], the EC50 is < 1 nM.

As to `CCN(CC)CC(=O)Nc1nc2cc(-c3ccc4c(c3)c(C(=O)N[C@@H](C)c3ccc(F)cc3)cn4C)ccn2n1` [Compound 36], the EC50 is < 1 nM.

For `C[C@H](NC(=O)c1cn(C)c2ccc(-c3ccn4nc(NC(=O)CN5CCC[C@H]5C(=O)O)nc4c3)cc12)c1ccc(F)cc1` [Compound 37], the EC50 lay within 1 to 10 nM.

In the case of `C[C@H](NC(=O)c1cn(C)c2ccc(-c3ccn4nc(NC(=O)CN5CC[C@H](O)C5)nc4c3)cc12)c1ccc(F)cc1` [Compound 41], the EC50 was < 1 nM.

As for `C[C@H](NC(=O)c1cn(C)c2ccc(-c3ccn4nc(NC(=O)CN5CCCC(CO)C5)nc4c3)cc12)c1ccc(F)cc1` (stereo partly shown) [Compound 44], the EC50 was 1 to 10 nM.

On to `CC1CN(CC(=O)Nc2nc3cc(-c4ccc5c(c4)c(C(=O)N[C@@H](C)c4ccc(F)cc4)cn5C)ccn3n2)CCO1` (stereo partly shown) [Compound 45], for which the EC50 was < 1 nM.

For the compound `C[C@H](NC(=O)c1cn(C)c2ccc(-c3ccn4nc(NC(=O)CN5CCC(F)(F)CC5)nc4c3)cc12)c1ccc(F)cc1` [Compound 47], the EC50 was < 1 nM.

For the compound `C[C@H](NC(=O)c1cn(C)c2ccc(-c3ccn4nc(NC(=O)Cn5ccnc5)nc4c3)cc12)c1ccc(F)cc1` [Compound 48], the EC50 is 10 to 100 nM.

On to `C[C@H](NC(=O)c1cn(C)c2ccc(-c3ccn4nc(NC(=O)CN5CCC[C@@H](O)C5)nc4c3)cc12)c1ccc(F)cc1` [Compound 49], for which the EC50 fell in the range of 1 to 10 nM.

On to `C[C@H](NC(=O)c1cn(C)c2ccc(-c3ccn4nc(NC(=O)CN5CCN(C(=O)C6CC6)CC5)nc4c3)cc12)c1ccc(F)cc1` [Compound 50], for which the EC50 is < 1 nM.

On to `C[C@H](NC(=O)c1cn(C)c2ccc(-c3ccn4nc(NC(=O)Cn5ccnn5)nc4c3)cc12)c1ccc(F)cc1` [Compound 52], for which the EC50 is < 1 nM.

In the case of `CC(=O)N1CCN(CC(=O)Nc2nc3cc(-c4ccc5c(c4)c(C(=O)N[C@@H](C)c4ccc(F)cc4)cn5C)ccn3n2)CC1` [Compound 53], the EC50 is < 1 nM.

As to `C[C@H](NC(=O)c1cn(C)c2ccc(-c3ccn4nc(NC(=O)Cn5cncn5)nc4c3)cc12)c1ccc(F)cc1` [Compound 57], the EC50 lay in the range of 10 to 100 nM.

On to `C[C@H](NC(=O)c1cn(C)c2ccc(-c3ccn4nc(NC(=O)Cn5cccn5)nc4c3)cc12)c1ccc(F)cc1` [Compound 58], for which the EC50 was < 1 nM.

With `C[C@H](NC(=O)c1cn(C)c2ccc(-c3ccn4nc(NC(=O)CN5CC[C@H](CO)C5)nc4c3)cc12)c1ccc(F)cc1` [Compound 61], the EC50 was in the range of 1 to 10 nM.

Take `C[C@H](NC(=O)c1cn(C)c2ccc(-c3ccn4nc(NC(=O)CN5CC[C@@H](CO)C5)nc4c3)cc12)c1ccc(F)cc1` [Compound 62]: the EC50 was < 1 nM.

On to `C[C@H](NC(=O)c1cn(C)c2ccc(-c3ccn4nc(NC(=O)CC(=O)O)nc4c3)cc12)c1ccc(F)cc1` [Compound 63], for which the EC50 lay in the range of 1000 to 10000 nM.

Consider `C[C@H](NC(=O)c1cn(C)c2ccc(-c3ccn4nc(NC(=O)CN5CCN(C(=O)OC(C)(C)C)C[C@H]5C)nc4c3)cc12)c1ccc(F)cc1` [Compound 64], for which the EC50 was < 1 nM.

`C[C@H](NC(=O)c1cn(C)c2ccc(-c3ccn4nc(NC(=O)CNCCOCCO)nc4c3)cc12)c1ccc(F)cc1` [Compound 65]: the EC50 is < 1 nM.

On to `C[C@H](NC(=O)c1cn(C)c2ccc(-c3ccn4nc(NC(=O)CNCC5CC5)nc4c3)cc12)c1ccc(F)cc1` [Compound 66], for which the EC50 is < 1 nM.

Turning to `CC(C)NCC(=O)Nc1nc2cc(-c3ccc4c(c3)c(C(=O)N[C@@H](C)c3ccc(F)cc3)cn4C)ccn2n1` [Compound 67], the half-maximal effective concentration (EC50) was < 1 nM.

On to `C[C@H](NC(=O)c1cn(C)c2ccc(-c3ccn4nc(NC(=O)CN5CCN(CCO)CC5)nc4c3)cc12)c1ccc(F)cc1` [Compound 70], for which the EC50 was < 1 nM.

In the case of `C[C@H](NC(=O)c1cn(C)c2ccc(-c3ccn4nc(NC(=O)CN5CCOC[C@H]5C)nc4c3)cc12)c1ccc(F)cc1` [Compound 72], the EC50 is < 1 nM.

In the case of `CCNCC(=O)Nc1nc2cc(-c3ccc4c(c3)c(C(=O)N[C@@H](C)c3ccc(F)cc3)cn4C)ccn2n1` [Compound 76], the EC50 is < 1 nM.

As for `C[C@H](NC(=O)c1cn(C)c2ccc(-c3ccn4nc(NC(=O)CNC5CCOC5)nc4c3)cc12)c1ccc(F)cc1` (stereo partly shown) [Compound 77], the EC50 is < 1 nM.

`C[C@H](NC(=O)c1cn(C)c2ccc(-c3ccn4nc(NC(=O)CN(C)C)nc4c3)cc12)c1ccc(Cl)cc1` [Compound 78]: the 50% effective concentration (EC50) was < 1 nM.

`C[C@H](NC(=O)c1cn(C)c2ccc(-c3ccn4nc(NC(=O)CN5CC6CC5CO6)nc4c3)cc12)c1ccc(Cl)cc1` (stereo partly shown) [Compound 79]: the EC50 is < 1 nM.

In the case of `C[C@H](NC(=O)c1cn(C)c2ccc(-c3ccn4nc(NC(=O)CN5CC(F)(F)C5)nc4c3)cc12)c1ccc(Cl)cc1` [Compound 80], the EC50 was < 1 nM.

`C[C@H](NC(=O)c1cn(C)c2ccc(-c3ccn4nc(NC(=O)CN5CCOC[C@H]5C)nc4c3)cc12)c1ccc(Cl)cc1` [Compound 81]: the EC50 is < 1 nM.

For the compound `C[C@H](NC(=O)c1cn(C)c2ccc(-c3ccn4nc(NC(=O)CN5CCOC[C@@H]5C)nc4c3)cc12)c1ccc(Cl)cc1` [Compound 82], the EC50 was < 1 nM.

For the compound `C[C@H](NC(=O)c1cn(C)c2ccc(-c3ccn4nc(NC(=O)CN5CCOCC5)nc4c3)cc12)c1ccc(Cl)cc1` [Compound 83], the EC50 is < 1 nM.

On to `CC1CN(CC(=O)Nc2nc3cc(-c4ccc5c(c4)c(C(=O)N[C@@H](C)c4ccc(Cl)cc4)cn5C)ccn3n2)CCO1` (stereo partly shown) [Compound 84], for which the EC50 is < 1 nM.

Turning to `C[C@@H]1CN(CC(=O)Nc2nc3cc(-c4ccc5c(c4)c(C(=O)N[C@@H](C)c4ccc(Cl)cc4)cn5C)ccn3n2)C[C@H](C)O1` [Compound 85], the EC50 is < 1 nM.

As to `C[C@H](NC(=O)c1cn(C)c2ccc(-c3ccn4nc(NC(=O)CN5CCC(F)(F)CC5)nc4c3)cc12)c1ccc(Cl)cc1` [Compound 86], the EC50 was < 1 nM.

As to `C[C@H](NC(=O)c1cn(C)c2ccc(-c3ccn4nc(NC(=O)CN5CCSCC5)nc4c3)cc12)c1ccc(Cl)cc1` [Compound 87], the EC50 is < 1 nM.

On to `C[C@H](NC(=O)c1cn(C)c2ccc(-c3ccn4nc(NC(=O)CN5CCOCC5)nc4c3)cc12)c1ccco1` [Compound 88], for which the EC50 was in the range of 1 to 10 nM.
